The target in data set [1] is T1, 15N-labeled PDIa (Homo sapiens, UniProt P07237).
T1 construct: His6 (N, cleaved yes); made in house; host or cells: Escherichia coli BL21-Gold (DE3), M9 minimal medium with 15NH4Cl
Nature of the data set: 1H-15N HSQC NMR of PDIa. It is filed as binding. The procedure:
The ^1H-^15N HSQC spectra were performed on Bruker Avance III 500 Ascend (500 MHz) spectrometers at 300 K. The uniformly ^15N-labeled PDIa was dissolved at 50 μM or 100 μM in 90% H2O/10% D20 (v/v), pH 5.1. The ^1H carrier frequency was positioned at the water resonance. The ^15N carrier frequency was positioned at 115 ppm. The spectral width in the ^1H dimension was 7500 Hz and the width in ω1 (^15N) dimension was 1824.6 Hz. Suppression of water signal was accomplished using the WATERGATE sequence. Heteronuclear decoupling was accomplished using GARP decoupling scheme.

The subject of data set [2] is neuronal redox state (roGFP2). Nature of the data set: roGFP2 redox reporter in primary neurons. It is filed as cell-based. The procedure: […]. Rat coronal brain slice explants co-transfected with YFP and Tau-4R (FIG. 16B) or striatal brain slice explants co-transfected with YFP and mHTT (FIG. 16C) were treated with LC-43 or DMSO carrier-only for 3 days. The respective regions of each brain slice were then scored for numbers of healthy (FIG. 16B) pyramidal or (FIG. 16C) medium spiny neurons remaining. Data are normalized to the negative control condition set to 100% and plotted as means±SEM. In FIG. 16D, The confocal images shown are maximal z-stacks of 0.5 μm steps (˜20 images per stack). (Bottom) Reduction of neuronal redox state by LC-43. Left, Primary neurons were co-transfected with mCherry (to positively identify transfected neurons) and the genetically encoded ratiometric redox reporter roGFP2. Four days later, the culture medium was changed into an identical formulation except without conventional antioxidant additives. 24 hours after this medium change, LOC-43 or DMSO carrier-only were added to the neurons and images were taken after 30 minutes or 24 hours of treatment as indicated. Imaging was done using a Leica SP5 inverted confocal microscope through a 63× water-immersion objective. Images of 40 individual neurons for each condition were collected at 405 and 488 nm and analysis of the 405/488 ratio for each image pair was done using CellProfiler (Broad Institute).
As mentioned, we synthesized several fluorine-containing analogs of LOC14 (analogs LC-43 and LC-40). Addition of fluorine was the only modification that was tolerated at the ortho position without a complete loss of activity in cells and in targeting PDI in vitro (Table 9). […] Additionally, we evaluated LC-43 using a genetically encoded redox reporter transfected into neurons. […] In contrast, treatment with the non-selective reducing agent dithiothreitol (DTT) produces an immediate and dramatic reduction in the roGFP2 fluorescence ratio that leads rapidly to cell degeneration and death (FIG. 16D). […]

Data set [3] has as its target Muscarinic M3 (Homo sapiens, UniProt P20309). Nature of the data set: Off-target panel, Muscarinic M3. It is filed as binding. Conditions: Conc. 3 μM.
The target in data set [4] is T2, INSR (Homo sapiens, UniProt P06213).
T2 construct: CEREP (CRO panel)
Nature of the data set: Safety47 panel kinase INSR. It is filed as biochemical. Conditions: Inhibitor mode; 3 μM. The text has this: (§1) LOC14 was also submitted for testing in CEREP's Safety47 panel. CEREP is a CRO specializing in preclinical research, discovery and development of new pharmaceutical drugs.

The target of data set [5] is T3, COX2 (Homo sapiens, UniProt P35354).
T3 construct: CEREP (CRO panel)
Nature of the data set: Safety47 panel non-kinase enzyme COX2. It is filed as biochemical. Conditions: Inhibitor mode; 3 μM.
Description: as §1

For data set [6], the target named is T4, CYP1A2 (Homo sapiens, UniProt P05177).
T4 construct: Cyprotex (CRO)
T4 sequence (P05177 whole entry): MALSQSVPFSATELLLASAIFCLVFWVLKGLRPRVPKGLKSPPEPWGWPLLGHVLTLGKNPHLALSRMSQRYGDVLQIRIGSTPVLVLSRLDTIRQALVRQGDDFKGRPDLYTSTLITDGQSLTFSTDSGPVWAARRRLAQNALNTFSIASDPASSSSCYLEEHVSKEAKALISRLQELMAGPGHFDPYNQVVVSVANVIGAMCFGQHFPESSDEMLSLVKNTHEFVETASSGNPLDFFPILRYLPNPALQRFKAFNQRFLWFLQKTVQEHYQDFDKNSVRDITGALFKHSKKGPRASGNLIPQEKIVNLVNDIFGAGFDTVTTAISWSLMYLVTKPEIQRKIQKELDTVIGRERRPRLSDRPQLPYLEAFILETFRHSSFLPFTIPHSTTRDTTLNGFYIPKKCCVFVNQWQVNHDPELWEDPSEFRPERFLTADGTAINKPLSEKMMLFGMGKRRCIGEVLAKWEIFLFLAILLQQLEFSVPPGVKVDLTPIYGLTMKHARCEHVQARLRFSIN
Nature of the data set: CYP450 inhibition, CYP1A2. It is filed as in vitro ADME. Conditions: high concentration of 30 μM.

Data set [7] concerns the target Dopamine D1 (Homo sapiens, UniProt P21728). Nature of the data set: Off-target panel, Dopamine D1. Conditions: Conc. 3 μM. It is filed as binding.
Data set [8] relates to ST14A mHTTQ120 cells. Nature of the data set: Rescue of ST14A mHTTQ120 cells (39° C., serum starved, CellTiter-Glo). It is filed as cell-based, rat. Conditions: 48 hours. From the text:
(§2) Having elucidated the molecular mechanism of LOC14's binding to PDI, we next tested whether PDI modulation with LOC14 would be effective in neurodegenerative disease models. First, we evaluated LOC14's neuroprotection in rat neuron-like PC12 cells stably transfected with an inducible plasmid for truncated mutant huntingtin protein (mHTT^Q103). […] We next evaluated the activity of LOC14 in cells that more closely represent the medium-size spiny neurons affected in Huntington Disease patients. We used rat embryonic day 14 striatal neuronal cells (ST14A) immortalized by transduction of temperature-sensitive SV40 large T antigen (Cattaneo and Conti, 1998; Ehrlich et al. 2001; Rigamonti et al. 2000). Under serum deprivation and at 39° C., where large T antigen is degraded, ST14A cells undergo cell death within 48-72 hours. This death was rescued by treatment with LOC14 (FIG. 13B).

Data set [9] concerns the target T5, PDE4D2 (Homo sapiens, UniProt Q08499).
T5 construct: CEREP (CRO panel)
Nature of the data set: Safety47 panel non-kinase enzyme PDE4D2. It is filed as biochemical. Conditions: Inhibitor mode; 3 μM.
Description: as §1

The target of data set [10] is Potassium Channel hERG (Homo sapiens, UniProt Q12809). Nature of the data set: in vitro.
Description: Additionally, we tested LOC14 in CEREP's Safety47 panel, an in vitro pharmacological profiling to determine off-target liabilities that might exist against 47 human targets associated with safety issues (Table 3 and Table 4).
In data set [11] the target is T6, ROCK1 (Homo sapiens, UniProt Q13464).
T6 construct: CEREP (CRO, Safety47 panel)
T6 sequence (Q13464 whole entry): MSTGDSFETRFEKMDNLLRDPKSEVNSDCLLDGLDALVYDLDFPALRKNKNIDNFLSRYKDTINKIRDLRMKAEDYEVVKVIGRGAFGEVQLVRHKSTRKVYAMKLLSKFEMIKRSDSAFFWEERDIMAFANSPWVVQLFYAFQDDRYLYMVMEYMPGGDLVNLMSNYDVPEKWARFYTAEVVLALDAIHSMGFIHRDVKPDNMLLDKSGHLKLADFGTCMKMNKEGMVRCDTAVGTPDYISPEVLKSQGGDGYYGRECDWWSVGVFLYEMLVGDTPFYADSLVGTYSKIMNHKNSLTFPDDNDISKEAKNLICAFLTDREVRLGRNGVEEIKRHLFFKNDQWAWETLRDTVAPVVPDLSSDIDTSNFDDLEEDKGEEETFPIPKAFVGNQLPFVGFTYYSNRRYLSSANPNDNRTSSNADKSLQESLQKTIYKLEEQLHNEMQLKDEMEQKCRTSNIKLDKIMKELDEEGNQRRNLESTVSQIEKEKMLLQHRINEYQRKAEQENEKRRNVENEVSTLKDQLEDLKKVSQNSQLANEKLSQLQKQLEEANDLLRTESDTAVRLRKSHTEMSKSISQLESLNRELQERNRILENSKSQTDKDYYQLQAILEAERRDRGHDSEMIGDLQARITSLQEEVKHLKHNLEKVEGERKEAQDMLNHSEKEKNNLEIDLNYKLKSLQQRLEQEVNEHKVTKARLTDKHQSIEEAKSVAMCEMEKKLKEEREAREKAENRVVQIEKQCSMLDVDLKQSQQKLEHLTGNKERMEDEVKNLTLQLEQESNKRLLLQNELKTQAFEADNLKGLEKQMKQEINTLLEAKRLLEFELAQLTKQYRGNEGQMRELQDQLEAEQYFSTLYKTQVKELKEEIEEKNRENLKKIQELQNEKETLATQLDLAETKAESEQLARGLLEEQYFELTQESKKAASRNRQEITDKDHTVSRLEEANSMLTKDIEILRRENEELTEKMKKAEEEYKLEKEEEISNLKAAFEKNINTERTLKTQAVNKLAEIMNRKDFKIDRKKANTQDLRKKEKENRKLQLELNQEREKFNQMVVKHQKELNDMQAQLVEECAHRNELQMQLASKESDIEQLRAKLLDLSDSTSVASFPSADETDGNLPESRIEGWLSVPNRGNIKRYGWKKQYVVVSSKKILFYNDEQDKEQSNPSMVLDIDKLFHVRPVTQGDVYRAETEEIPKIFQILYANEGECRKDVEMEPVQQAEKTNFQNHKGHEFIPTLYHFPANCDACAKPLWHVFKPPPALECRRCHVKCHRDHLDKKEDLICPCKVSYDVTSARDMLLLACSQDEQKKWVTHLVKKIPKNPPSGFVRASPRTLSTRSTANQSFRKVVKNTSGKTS
Nature of the data set: Safety47 panel kinase ROCK1. It is filed as biochemical. Conditions: Inhibitor mode; 3 μM.
Description: as §1

Data set [12] has as its target T7, GR (Homo sapiens, UniProt P04150).
T7 construct: CEREP (CRO panel)
Nature of the data set: Safety47 panel nuclear hormone receptor GR. It is filed as cell-based. Conditions: 3 μM.
Description: as §1

Data set [13] concerns the target T8, VEGFR2 (Homo sapiens, UniProt P35968).
T8 construct: CEREP (CRO, Safety47 panel)
Nature of the data set: Safety47 panel kinase VEGFR2. It is filed as biochemical. Conditions: Inhibitor mode; 3 μM.
Description: as §1

The target in data set [14] is T9, AChE (Homo sapiens, UniProt P22303).
T9 construct: CEREP (CRO panel)
Nature of the data set: Safety47 panel non-kinase enzyme AChE. Conditions: Inhibitor mode; 3 μM. It is filed as biochemical.
Description: as §1

Data set [15] has as its system parental ST14A cells. Nature of the data set: Rescue of parental ST14A cells (39° C., serum starved, CellTiter-Glo). It is filed as cell-based, rat. Conditions: 48 hours.
Description: as §2
(Cellular ATP, detected with luciferase, serves as a proxy for viable cell number.)

Data set [16] deals with Nicotinic Acetylcholine α1, Bungarotoxin (Homo sapiens, UniProt P02708+P07510+Q07001). Nature of the data set: Off-target panel, Nicotinic Acetylcholine α1. Conditions: read-out: % Inh. It is filed as binding.

T7 sequence (P04150 whole entry): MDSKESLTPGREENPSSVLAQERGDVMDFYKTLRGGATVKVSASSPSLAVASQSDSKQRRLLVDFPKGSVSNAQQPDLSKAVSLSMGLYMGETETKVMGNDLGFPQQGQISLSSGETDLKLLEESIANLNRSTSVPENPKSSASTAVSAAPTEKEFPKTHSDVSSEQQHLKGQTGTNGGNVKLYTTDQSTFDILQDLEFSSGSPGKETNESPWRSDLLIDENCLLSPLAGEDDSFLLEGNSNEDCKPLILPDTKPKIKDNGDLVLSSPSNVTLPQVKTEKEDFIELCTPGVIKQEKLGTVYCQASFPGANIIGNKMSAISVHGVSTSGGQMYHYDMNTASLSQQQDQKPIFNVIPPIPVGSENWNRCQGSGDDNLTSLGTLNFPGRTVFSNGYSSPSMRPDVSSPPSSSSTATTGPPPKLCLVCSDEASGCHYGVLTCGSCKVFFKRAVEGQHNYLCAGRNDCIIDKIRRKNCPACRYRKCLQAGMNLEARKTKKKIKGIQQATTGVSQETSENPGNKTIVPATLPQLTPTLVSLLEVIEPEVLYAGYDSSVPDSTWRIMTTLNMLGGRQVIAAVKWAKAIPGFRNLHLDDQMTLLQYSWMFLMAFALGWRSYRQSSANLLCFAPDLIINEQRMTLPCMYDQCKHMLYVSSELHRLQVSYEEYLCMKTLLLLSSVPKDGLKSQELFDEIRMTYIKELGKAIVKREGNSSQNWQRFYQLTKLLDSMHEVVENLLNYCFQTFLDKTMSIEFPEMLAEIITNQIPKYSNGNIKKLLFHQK
T8 sequence (P35968 20-1356): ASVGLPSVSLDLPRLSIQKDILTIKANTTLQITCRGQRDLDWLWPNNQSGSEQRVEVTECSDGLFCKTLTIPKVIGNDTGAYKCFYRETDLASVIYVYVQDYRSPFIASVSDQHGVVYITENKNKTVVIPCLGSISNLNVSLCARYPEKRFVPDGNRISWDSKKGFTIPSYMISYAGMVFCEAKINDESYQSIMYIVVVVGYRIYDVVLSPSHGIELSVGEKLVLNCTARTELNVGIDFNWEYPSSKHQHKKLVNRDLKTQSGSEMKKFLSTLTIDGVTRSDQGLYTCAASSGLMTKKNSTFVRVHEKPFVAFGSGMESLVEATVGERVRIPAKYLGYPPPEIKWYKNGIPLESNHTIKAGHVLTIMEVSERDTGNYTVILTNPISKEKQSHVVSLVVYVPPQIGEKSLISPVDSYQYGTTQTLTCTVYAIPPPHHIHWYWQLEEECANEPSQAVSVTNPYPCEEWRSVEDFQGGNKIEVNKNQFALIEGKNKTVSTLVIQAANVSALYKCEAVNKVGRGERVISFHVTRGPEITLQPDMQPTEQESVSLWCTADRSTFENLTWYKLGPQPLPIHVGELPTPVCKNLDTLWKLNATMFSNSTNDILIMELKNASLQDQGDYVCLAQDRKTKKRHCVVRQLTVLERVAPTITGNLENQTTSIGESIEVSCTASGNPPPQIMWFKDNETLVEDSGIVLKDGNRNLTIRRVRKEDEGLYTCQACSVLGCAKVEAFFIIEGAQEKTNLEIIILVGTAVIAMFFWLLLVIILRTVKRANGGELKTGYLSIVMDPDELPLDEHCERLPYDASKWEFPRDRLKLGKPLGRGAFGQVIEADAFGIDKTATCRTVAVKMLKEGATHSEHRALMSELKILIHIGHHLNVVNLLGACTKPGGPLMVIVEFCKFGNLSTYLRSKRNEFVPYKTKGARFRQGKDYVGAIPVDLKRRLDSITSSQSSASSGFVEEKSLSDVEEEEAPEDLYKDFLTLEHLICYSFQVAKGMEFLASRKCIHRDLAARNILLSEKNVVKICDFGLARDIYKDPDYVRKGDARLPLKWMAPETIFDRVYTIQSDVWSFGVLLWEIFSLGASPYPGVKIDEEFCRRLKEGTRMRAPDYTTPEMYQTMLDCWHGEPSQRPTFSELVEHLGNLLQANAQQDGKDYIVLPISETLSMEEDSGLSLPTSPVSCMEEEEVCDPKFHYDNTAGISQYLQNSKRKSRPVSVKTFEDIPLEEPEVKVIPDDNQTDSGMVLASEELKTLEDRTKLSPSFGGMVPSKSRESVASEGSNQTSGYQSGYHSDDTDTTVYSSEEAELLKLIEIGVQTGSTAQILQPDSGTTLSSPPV
Sequence of Muscarinic M3 (P20309 whole entry): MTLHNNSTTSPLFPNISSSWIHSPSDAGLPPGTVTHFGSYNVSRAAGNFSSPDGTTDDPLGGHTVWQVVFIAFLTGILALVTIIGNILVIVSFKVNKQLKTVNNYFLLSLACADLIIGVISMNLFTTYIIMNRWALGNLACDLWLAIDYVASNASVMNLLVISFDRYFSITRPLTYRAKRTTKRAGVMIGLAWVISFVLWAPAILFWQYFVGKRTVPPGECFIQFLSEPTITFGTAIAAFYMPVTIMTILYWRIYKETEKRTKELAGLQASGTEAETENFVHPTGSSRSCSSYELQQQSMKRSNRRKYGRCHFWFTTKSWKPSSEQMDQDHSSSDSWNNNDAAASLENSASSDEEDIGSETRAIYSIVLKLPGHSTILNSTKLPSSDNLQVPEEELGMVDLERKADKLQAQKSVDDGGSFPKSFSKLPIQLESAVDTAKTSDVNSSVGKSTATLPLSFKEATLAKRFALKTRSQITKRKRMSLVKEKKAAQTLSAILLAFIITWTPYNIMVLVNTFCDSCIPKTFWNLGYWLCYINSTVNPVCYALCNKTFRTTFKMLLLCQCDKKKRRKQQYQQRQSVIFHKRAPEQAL
Sequence of Dopamine D1 (P21728 whole entry): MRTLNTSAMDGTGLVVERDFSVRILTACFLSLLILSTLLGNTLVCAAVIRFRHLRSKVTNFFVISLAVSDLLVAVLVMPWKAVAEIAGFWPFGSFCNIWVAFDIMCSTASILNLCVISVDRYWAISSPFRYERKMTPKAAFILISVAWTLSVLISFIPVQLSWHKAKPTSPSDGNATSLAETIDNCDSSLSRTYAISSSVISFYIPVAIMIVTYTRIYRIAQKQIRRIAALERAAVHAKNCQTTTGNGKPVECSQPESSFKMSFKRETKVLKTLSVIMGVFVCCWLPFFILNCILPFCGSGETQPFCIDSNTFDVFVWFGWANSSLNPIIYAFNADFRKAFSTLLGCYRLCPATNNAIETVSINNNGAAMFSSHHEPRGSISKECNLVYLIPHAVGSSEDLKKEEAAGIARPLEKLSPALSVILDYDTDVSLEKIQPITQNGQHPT

Consider `O=C(C1CC1)N1CCN(Cn2sc3c(F)cccc3c2=O)CC1` [LC-43], for which the “chemical shift changes in PDIa (1H-15N HSQC)” value in data set [1] was “same chemical shift changes in the active site as induced by LOC14”. Further, the “neuronal redox state (roGFP2)” value is “no effect” in [2] (30 min treatment); “measurable and significant reduction in neuronal redox state” in [2] (24 h treatment, 10 μM).

Consider `O=C(C1CC1)N1CCN(Cn2sc3ccccc3c2=O)CC1` [LOC14], for which the inhibition at 3 µM in data set [3] is -4%; in data set [7], 34%; in [10] it was 10%; in data set [16], 11%. Besides, the Average in [4] is on record as 22.7; in [5], 2.8; in data set [9], 0.0; in data set [11], 13.5; in data set [12] (Agonist mode) it was 0.0; in [12] (Antagonist mode), 0.1. Besides, the figures for the Average in [13] and in data set [14] were 17.2 and 2.8, respectively. Besides, the “inhibition of CYP1A2” value in data set [6] was “inhibits”. Also, the results for the EC100 in [8] and in data set [15] were 6 nM and 24 nM, respectively.
